According to patent US5728686A, “Alkylxanthine phosphonates and alkylxanthine phosphine oxides and their use as pharmaceuticals” (Hoechst Aktiengesellschaft, priority 1996, dated 1998):
Values after ≈ are worked out from the molar mass of the structure shown.

Tests used:
[1] = tested on: phosphodiesterase III; assay: inhibition of phosphodiesterase III activity; type: biochemical; settings: at 100 μM
Procedure: 5. Inhibition of phosphodiesterase III activity
The test is carried out using phosphodiesterase from Boehringer Mannheim (Mannheim, Germany), Order No. 108 243 according to the method of T. SAEKI, I. SAITO, Biochem. Pharm. 46, No. 5, […], pages 833-839.
All numerical values are indicated in % inhibition of the enzyme activity at 100 μM of the corresponding compound of the formula I.

[2] = tested on: isolated guinea pig trachea, agonist substance P; assay: antagonist of substance P-induced contraction of isolated guinea pig trachea; type: cell-based; settings: Cavia porcellus, individual doses, 37° C., read-out: Anticontractile action (trachea), SP antagonism: concentration range for dilatation corresponding to ED50 range
Source text: 3. Activity as antagonist of the contraction of isolated guinea pig trachea
The compounds of the formula I are used as antagonists of the contraction of isolated guinea pig trachea. The agonists employed were PGF2α (Upjohn, Germany), calcium ionophore A23187 (Calbiochem, Bad Soden, Germany), and substance P (American Peptide Comp., USA):
The antagonism is possible on the one hand due to specific receptor antagonists, and on the other hand also due to inhibition of the subsequent signal pathway. Preparations which directly or indirectly increase the intracellular concentration of cyclic nucleotides in particular show spasmolytic properties here.
(§1) Preparation of the organ sections and experimental procedure:
The guinea pig is sacrificed by means of terminal laughing gas anaesthesia. The trachea is exposed along its entire length and cut into 15 individual cartilage rings. 5 rings in each case are tied together to give a chain and fixed in the organ bath under a preload of 3 g. After an equilibration time of 45 minutes, a contraction is produced using the agonist. The antagonist (test preparation) is added cumulatively on the plateau of the maximum. Evaluation is carried out in % force change relative to the contraction maximum. The experimental procedure is carried out at 37° C.; the physiological nutrient solution used is a modified Krebs-Henseleit solution through which is bubbled 95% by volume of O2, 5% by volume of CO2.
Experimental animals: albino guinea pigs (Hattersheim Animal Breeding Institute, Kastengrund, Germany), weight: 200 to 300 g, sex male or female.
Vehicle: double-distilled water, ethanol or isopropanol; administration: into the organ bath number of administration: cumulative, in SP individual doses
All numerical values are indicated in the unit μg/ml and relate to the concentration range of the tested compound of the formula I according to the invention (see example numbers in Table 1) which is necessary in order to cause a dilatation which corresponds to the ED50 range.

[3] = tested on: muscle group (gastrocnemius, plantaris and soleus) of the immobilized right rear extremity; assay: rat muscle function test: direct electrical stimulation of muscle group after 3 weeks' immobilization; type: in vivo, male Wistar rats; settings: oral, 1x per day for 3 weeks, as a rule 25 mg/kg, ≤-12% classified as active; for Work (performed work, right/left difference): isotonic stimulation, control approx. -25%; for Force (force under the contraction curve, right/left difference): isometric stimulation, control difference approx. 25%
Source text: (§2) 1. Activity in the rat muscle function test
(§3) Male Wistar rats (body weight about 300 g) were kept under standard conditions with feed and water ad libitum. The right rear extremity was immobilized by fitting a kind of "shoe" to the animals under short-term anaesthesia. Two ergonomically fitted halves of the "shoe" were cast from a liquid plastic material which is also used for the production of dental prostheses, these were put onto the animal under brief anaesthesia and joined with the aid of a wire. The material is light but hard, so that the animals cannot gnaw the material, and the "shoe" can be opened at any time to examine the condition of the immobilized extremity. The two halves were moreover padded out with chamois leather in order to avoid compressions and possible injuries due to rubbing. The system also has the advantage that the angle of immobilization is standardized in all animals; this would not be possible with a plaster cast. The chosen angle allows the animals to take up a normal sitting position despite the "shoe" and also to carry the body weight using this extremity. Only complete stretching or bending of the leg is impossible.
(§4) After 3 weeks' immobilization of the right rear extremity and simultaneous oral administration of test preparations (1× per day using a stomach tube; as a rule 25 mg/kg of body weight, in carboxymethylcellulose, the animals were weighed and anaesthetized with pentobarbital (35 mg/kg i.p.). Functional parameters were measured during direct electrical stimulation of a muscle group (gastrocnemius, plantaris and soleus). This muscle group, merely called "muscle" in the following, was exposed at the ankle tendon and tied to a force transducer via the tendon.
To determine the contractile force, the muscles were stimulated isometrically, i.e. a preload of 0.5N was applied and the muscle was stimulated by means of a series of electrical pulses, which led to a maximum contraction, every 0.7 sec for 80 msec for a period of 15 min. […] The area under this contraction curve was evaluated and the difference in percent between the right atrophic and left normal muscle compared (force under the contraction curve as difference in percent (Δ%)). The difference in the control group is approximately 25%.
An isotonic muscle stimulation was used to determine the performed work of the muscle over time. In this type of measurement, the shortening of the muscle during contraction is used as a basis. To this end, a preload which corresponds to the body weight was applied to the muscles. A series of stimulation pulses (80 msec) were triggered every 3 sec and the muscle was stimulated for 15 min. The data (contraction force and distance travelled) were converted to the work performed in the unit J using an automated system. The difference in the work performed between the immobilized atrophic and the normal muscle in the control animals was approximately -25%.
Values which are positive indicate that the functional parameters of the immobilized muscle were better than those of the contralateral normal muscle.

[4] = tested on: soleus muscle; assay: rat muscle function test: muscle weight (atrophy of immobilized extremity); type: in vivo, male Wistar rats; settings: oral, 1x per day for 3 weeks, as a rule 25 mg/kg, difference ≤25% classified as an effect
Source text: as §2, §3
In spite of this, a significant decrease in the skeletal muscle mass (atrophy) of the immobilized extremity occurred, to be precise up to -35% in comparison with the contralateral nonimmobilized rear extremity. As the soleus muscle was the most severely affected, the changes in muscle weight after administration of preparation shown in Table 1 relate to this muscle. A difference of ≤25% between the right immobilized and left non-immobilized rear extremity was classified as an effect.
as §4

[5] = tested on: isolated guinea pig lung strips, leukotriene D4 (LTD4); assay: antagonist of LTD4-induced contraction of isolated guinea pig lung strips; type: cell-based; settings: Cavia porcellus, read-out: Anticontractile action (lung), LTD4: concentration range corresponding to the IC50 value
Source text: (§5) 4. Activity as an antagonist of the contraction of isolated guinea pig lung strips
(§6) The test carried out is based on the same principle as the test indicated in the pharmacological test 3; however, lung strips are used here.
as §1
(§7) The guinea pig is sacrificed under laughing gas anaesthesia. The entire pulmonary tract is exposed starting from the trachea. The lobes of the lung are cut in a circular fashion such that 3 mm wide strips are formed. The strips of the upper lobes are divided in order to obtain a total of six approximately equal size strips. The strips are suspended in the organ baths under a preload of 4 g. The nutrient solutions used are modified Krebs Henseleit solutions. When using "Platelet activating factor" (PAF) as an […], the composition of this solution corresponds to that for the agonist SP in "Test 3"; for the agonist LTD4 a Krebs Henseleit solution as in the case of the agonist KCl (Test 3) is used. 95% by volume O2, 5% by volume CO2 is used for bubbling through the bath; the bath temperature is 37° C. The experimental procedure is carried out in a therapeutically cumulative methodology, using the dosage graduations 1, 3, 6 and 10 μg/ml.
(§8) The experimental animals, organ bath, vehicles and manner of administration correspond to that stated in pharmacological test 3.
(§9) All numerical values are indicated in the unit μg/ml and relate to the concentration range of tested compound of the formula I (see example numbers in Table 1) which is necessary in order to cause a contraction which corresponds to the IC50 value.

[6] = tested on: isolated guinea pig lung strips, Platelet activating factor (PAF); assay: antagonist of PAF-induced contraction of isolated guinea pig lung strips; type: cell-based; settings: Cavia porcellus, read-out: Anticontractile action (lung), PAF: concentration range corresponding to the IC50 value
Source text: as §5, §6, §1, §7, §8, §9

| Structure (SMILES) | PDE III Inhibition [1] | EC50 [2] | Work (performed work, right/left difference) [3] | Muscle weight (right/left difference) [4] | IC50 [5] | Force (force under the contraction curve, right/left difference) [3] | IC50 [6] |
| --- | --- | --- | --- | --- | --- | --- | --- |
| CCOP(=O)(CCCn1c(=O)c2c(ncn2C(C)C)n(C)c1=O)OCC [Example 47] | 64% | 10 to 30 µg/mL (≈ 25.9 to 77.6 µM) | -6 Δ % | 0 Δ % |  |  |  |
| CCOP(=O)(CCCCCn1c(=O)c2c(ncn2CC)n(C)c1=O)OCC [Example 20, Diethyl 5-(7-ethyl-3-methylxanthin-1-yl)pentylphosphonate] | 65% | 10 to 30 µg/mL (≈ 25 to 74.9 µM) |  |  |  |  |  |
| CCCn1c(=O)c2c(ncn2CCCP(=O)(OCC)OCC)n(CCC)c1=O [Example 9, Diethyl [3-(1,3-dipropylxanthin-7-yl)propyl]phosphonate] |  | 10 to 30 µg/mL (≈ 24.1 to 72.4 µM) |  |  | 3 to 6 µg/mL (≈ 7.24 to 14.5 µM) |  |  |
| CCCn1cnc2c1c(=O)n(CCCCP(=O)(OCC)OCC)c(=O)n2C [Example 32, Diethyl [4-(3-methyl-7-propyl-xanthin-1-yl)butyl]phosphonate] | 65% | 10 to 30 µg/mL (≈ 25 to 74.9 µM) | -1 Δ % | 0 Δ % | 6 to 10 µg/mL (≈ 15 to 25 µM) | -9 Δ % | 6 to 10 µg/mL (≈ 15 to 25 µM) |
| CCOP(=O)(CCCn1c(=O)c2c(ncn2C)n(C)c1=O)OCC [Example 33, Diethyl [3-(3,7-dimethylxanthin-1-yl)propyl]phosphonate] |  | 10 to 30 µg/mL (≈ 27.9 to 83.7 µM) | -10 Δ % | -16 Δ % |  | -7 Δ % | 3 to 6 µg/mL (≈ 8.37 to 16.7 µM) |
| CCOP(=O)(CCCCCn1c(=O)c2c(ncn2CC2CC2)n(C)c1=O)OCC [Example 49, Diethyl [5-(7-cyclopropylmethyl-3-methylxanthin-1-yl)pentyl]phosphonate] | 57% |  | -5 Δ % | -25 Δ % | 3 to 6 µg/mL (≈ 7.03 to 14.1 µM) | -5 Δ % |  |
| CCCn1cnc2c1c(=O)n(CCCCCP(=O)(OCC)OCC)c(=O)n2CC [Example 57, Diethyl [5-(3-ethyl-7-propylxanthin-1-yl)pentyl]phosphonate] | 70% |  | -8 Δ % | -17 Δ % |  | -5 Δ % |  |
| CCOP(=O)(CCCn1c(=O)c2c(ncn2CC2CC2)n(C)c1=O)OCC [Example 46, Diethyl [3-(7-cyclopropylmethyl-3-methylxanthin-1-yl)propyl]phosphonate] | 67% |  | +9 Δ % | -17 Δ % |  | +1 Δ % |  |
| CCOP(=O)(CCCCCn1c(=O)c2c(ncn2Cc2ccccc2)n(C)c1=O)OCC [Example 43, Diethyl [5-(7-benzyl-3-methylxanthin-1-yl)pentyl]phosphonate] | 52% |  |  |  | 1 to 6 µg/mL (≈ 2.16 to 13 µM) |  | 1 to 3 µg/mL (≈ 2.16 to 6.49 µM) |
| CCCn1cnc2c1c(=O)n(CCCP(=O)(OCC)OCC)c(=O)n2C [Example 55, Diethyl [3-(3-methyl-7-propylxanthin-1-yl)propyl]phosphonate] | 59% |  |  |  |  |  | 1 to 3 µg/mL (≈ 2.59 to 7.76 µM) |
| CCOP(=O)(CCCCn1cnc2c1c(=O)n(CCC(C)C)c(=O)n2C)OCC [Example 15, Diethyl [4-(1-(3-methylbutyl)-3-methylxanthin-7-yl)butyl]phosphonate] |  | 30 to 60 µg/mL (≈ 70 to 140 µM) | +2 Δ % | 0 Δ % |  | +5 Δ % |  |
| CCCCn1cnc2c1c(=O)n(CCCCCP(=O)(OCC)OCC)c(=O)n2C [Example 48, Diethyl [5-(7-butyl-3-methylxanthin-1-yl)pentyl]phosphonate] | 52% |  | -7 Δ % | 0 Δ % |  | -3 Δ % |  |
